Results as given in ChEMBL document CHEMBL3885881, “DrugMatrix”.

Species on record: Rattus norvegicus
Assay: DrugMatrix - Regimen: Daily Repeat
Type: toxicity, organism-based, Sprague-Dawley
Design: regimen Daily Repeat, gender Male, age 6-8 weeks
Conditions: in vivo, po, route oral GAVAGE, vehicle 60 % PEG400; for URIC ACID / ALANINE AMINOTRANSFERASE / ALBUMIN / ALKALINE PHOSPHATASE / ASPARTATE AMINOTRANSFERASE / BLOOD UREA NITROGEN / CARBON DIOXIDE / CHLORIDE / CHOLESTEROL / CREATINE PHOSPHOKINASE / CREATININE / GLUCOSE / LACTATE DEHYDROGENASE / LIPASE / PHOSPHORUS / POTASSIUM / SODIUM / TOTAL BILIRUBIN / TOTAL PROTEIN: tissue Plasma; for ABSOLUTE BASOPHIL / ABSOLUTE EOSINOPHIL / ABSOLUTE LYMPHOCYTE / ABSOLUTE MONOCYTE / ABSOLUTE SEGMENTED NEUTROPHIL / BASOPHIL / EOSINOPHIL / ERYTHROCYTE COUNT / HEMATOCRIT / HEMOGLOBIN / LEUKOCYTE COUNT / LYMPHOCYTE / MEAN CORPUSCULAR HEMOGLOBIN / MEAN CORPUSCULAR HEMOGLOBIN CONCENTRATION / MEAN CORPUSCULAR VOLUME / MONOCYTE / NEUTROPHIL / NUCLEATED RED BLOOD CELLS / PLATELET COUNT: tissue Blood
[1] = 0.001 mg/kg, 120 h, dose level Low, time 5 day
[2] = 0.1 mg/kg, 72 h, dose level High, time 3 day
[3] = 0.1 mg/kg, 120 h, dose level High, time 5 day

Structure (SMILES): N[C@@H](Cc1cc(I)c(Oc2ccc(O)c(I)c2)c(I)c1)C(=O)O [LIOTHYRONINE]
- URIC ACID (0.001 mg/kg, 72 h, dose level Low, time 3 day): 1.37 mg/dL
- ABSOLUTE BASOPHIL [1]: 0 CELLS/uL
- ABSOLUTE EOSINOPHIL [1]: 0 CELLS/uL
- ABSOLUTE LYMPHOCYTE [1]: 5590 CELLS/uL
- ABSOLUTE MONOCYTE [1]: 0 CELLS/uL
- ABSOLUTE SEGMENTED NEUTROPHIL [1]: 543.33 CELLS/uL
- BASOPHIL [1]: 0%
- EOSINOPHIL [1]: 0%
- ERYTHROCYTE COUNT [1]: 5.59 x10E6/uL
- HEMATOCRIT [1]: 33.3%
- HEMOGLOBIN [1]: 12.43 G/DL
- LEUKOCYTE COUNT [1]: 6.13 x10E3/uL
- LYMPHOCYTE [1]: 91%
- MEAN CORPUSCULAR HEMOGLOBIN [1]: 22.27 pg
- MEAN CORPUSCULAR HEMOGLOBIN CONCENTRATION [1]: 37.37 G/DL
- MEAN CORPUSCULAR VOLUME [1]: 59.57 fL
- MONOCYTE [1]: 0%
- NEUTROPHIL [1]: 9%
- NUCLEATED RED BLOOD CELLS [1]: 0.67 /100WBC
- PLATELET COUNT [1]: 972.33 x10E3/uL
- ALANINE AMINOTRANSFERASE [1]: 52.67 u/L
- ALBUMIN [1]: 4.57 G/DL
- ALKALINE PHOSPHATASE [1]: 421 u/L
- ASPARTATE AMINOTRANSFERASE [1]: 80.33 u/L
- BLOOD UREA NITROGEN [1]: 15.33 mg/dL
- CARBON DIOXIDE [1]: 31 mmol/L
- CHLORIDE [1]: 100.33 MEQ/L
- CHOLESTEROL [1]: 86 mg/dL
- CREATINE PHOSPHOKINASE [1]: 257.67 u/L
- CREATININE [1]: 0.19 mg/dL
- GLUCOSE [1]: 174.33 mg/dL
- LACTATE DEHYDROGENASE [1]: 98.33 u/L
- LIPASE [1]: 8.33 u/L
- PHOSPHORUS [1]: 12.67 mg/dL
- POTASSIUM [1]: 6.56 MEQ/L
- SODIUM [1]: 144.9 MEQ/L
- TOTAL BILIRUBIN [1]: 0.1 mg/dL
- URIC ACID [1]: 2.23 mg/dL
- ABSOLUTE BASOPHIL [2]: 0 CELLS/uL
- ABSOLUTE EOSINOPHIL [2]: 0 CELLS/uL
- ABSOLUTE LYMPHOCYTE [2]: 13461.67 CELLS/uL
- ABSOLUTE MONOCYTE [2]: 261.67 CELLS/uL
- ABSOLUTE SEGMENTED NEUTROPHIL [2]: 1443.33 CELLS/uL
- BASOPHIL [2]: 0%
- EOSINOPHIL [2]: 0%
- ERYTHROCYTE COUNT [2]: 6.02 x10E6/uL
- HEMATOCRIT [2]: 37%
- HEMOGLOBIN [2]: 14.37 G/DL
- LEUKOCYTE COUNT [2]: 15.17 x10E3/uL
- LYMPHOCYTE [2]: 89.33%
- MEAN CORPUSCULAR HEMOGLOBIN [2]: 23.9 pg
- MEAN CORPUSCULAR HEMOGLOBIN CONCENTRATION [2]: 38.8 G/DL
- MEAN CORPUSCULAR VOLUME [2]: 61.5 fL
- MONOCYTE [2]: 1.67%
- NEUTROPHIL [2]: 9%
- NUCLEATED RED BLOOD CELLS [2]: 0 /100WBC
- PLATELET COUNT [2]: 889 x10E3/uL
- ALANINE AMINOTRANSFERASE [2]: 70.67 u/L
- ALBUMIN [2]: 4.1 G/DL
- ALKALINE PHOSPHATASE [2]: 525 u/L
- ASPARTATE AMINOTRANSFERASE [2]: 112 u/L
- BLOOD UREA NITROGEN [2]: 14.67 mg/dL
- CARBON DIOXIDE [2]: 26.67 mmol/L
- CHLORIDE [2]: 104 MEQ/L
- CHOLESTEROL [2]: 88 mg/dL
- CREATINE PHOSPHOKINASE [2]: 402.67 u/L
- CREATININE [2]: 0.19 mg/dL
- GLUCOSE [2]: 148.67 mg/dL
- LACTATE DEHYDROGENASE [2]: 156.67 u/L
- LIPASE [2]: 14 u/L
- PHOSPHORUS [2]: 15.67 mg/dL
- POTASSIUM [2]: 7.38 MEQ/L
- SODIUM [2]: 147 MEQ/L
- TOTAL BILIRUBIN [2]: 0.13 mg/dL
- TOTAL PROTEIN [2]: 5.67 G/DL
- URIC ACID [2]: 2.47 mg/dL
- ABSOLUTE BASOPHIL [3]: 0 CELLS/uL
- ABSOLUTE EOSINOPHIL [3]: 0 CELLS/uL
- ABSOLUTE LYMPHOCYTE [3]: 3351.33 CELLS/uL
- ABSOLUTE MONOCYTE [3]: 14.67 CELLS/uL
- ABSOLUTE SEGMENTED NEUTROPHIL [3]: 800.67 CELLS/uL
- BASOPHIL [3]: 0%
- EOSINOPHIL [3]: 0%
- ERYTHROCYTE COUNT [3]: 5.59 x10E6/uL
- HEMATOCRIT [3]: 34.2%
- HEMOGLOBIN [3]: 12.77 G/DL
- LEUKOCYTE COUNT [3]: 4.17 x10E3/uL
- LYMPHOCYTE [3]: 80.33%
- MEAN CORPUSCULAR HEMOGLOBIN [3]: 22.83 pg
- MEAN CORPUSCULAR HEMOGLOBIN CONCENTRATION [3]: 37.33 G/DL
- MEAN CORPUSCULAR VOLUME [3]: 61.17 fL
- MONOCYTE [3]: 0.33%
- NEUTROPHIL [3]: 19.33%
- NUCLEATED RED BLOOD CELLS [3]: 0.33 /100WBC
- PLATELET COUNT [3]: 792.67 x10E3/uL
- ALANINE AMINOTRANSFERASE [3]: 69.67 u/L
- ALBUMIN [3]: 4.13 G/DL
- ALKALINE PHOSPHATASE [3]: 576 u/L
- ASPARTATE AMINOTRANSFERASE [3]: 110 u/L
- BLOOD UREA NITROGEN [3]: 12.67 mg/dL
- CARBON DIOXIDE [3]: 32.67 mmol/L
- CHLORIDE [3]: 103.33 MEQ/L
- CHOLESTEROL [3]: 94.67 mg/dL
- CREATINE PHOSPHOKINASE [3]: 218 u/L
- CREATININE [3]: 0.12 mg/dL
- GLUCOSE [3]: 132.67 mg/dL
- LACTATE DEHYDROGENASE [3]: 105.33 u/L
- LIPASE [3]: 12.33 u/L
- PHOSPHORUS [3]: 13.73 mg/dL
- POTASSIUM [3]: 7.47 MEQ/L
- SODIUM [3]: 149.43 MEQ/L
- TOTAL BILIRUBIN [3]: 0.13 mg/dL
- TOTAL PROTEIN [3]: 5.8 G/DL
- URIC ACID [3]: 2.43 mg/dL
